Common to all, as to format: biochemical
The target in one test is IRAK1 (Homo sapiens, UniProt P51617). Put plainly: Kinase profiling IRAK1. The settings on record: for remaining activity at 100 µM: read-out: residual kinase activity, IRAK1. From the text: (§1) Any value less that 25 is considered to be highly significant inhibition.
Another test deals with DYRK1A (Homo sapiens, UniProt Q13627). Put plainly: Determination of IC50 values against DYRK1a. The settings on record: average of duplicate; 10 concentrations 100 μM to 0.003 μM; read-out: IC 50 against DYRK1a. As to the method: The kinase assay was carried out using Multidrop 384's at room temperature in a total assay volume of 25.5 μl. To plates containing 0.5 μl of compounds, DMSO controls or acid blanks, 15 μl of an enzyme mix containing the DYRK1a enzyme and peptide/protein substrate in buffer was added. Compounds were pre-incubated in the presence of the enzyme and peptide/protein substrate for 5 minutes before initiation of the reaction by addition of 10 μl of ATP (final concentration selected for each kinase at 5, 20 or 50 μM). Assays were carried out for 30 minutes at room temperature before termination by the addition of 5 μl orthophosphoric acid. The assay plates were then harvested onto P81 Unifilter Plates by a Packard Harvester (wash buffer is 50 mM orthophosphoric acid) and dried in air. The dry Unifilter plates were then sealed by the addition of MicroScint O and counted in Packard Topcount NXT scintillation counters.

A further test addresses T1, ULK1 (Homo sapiens, UniProt O75385).
T1 sequence (O75385 1-1050): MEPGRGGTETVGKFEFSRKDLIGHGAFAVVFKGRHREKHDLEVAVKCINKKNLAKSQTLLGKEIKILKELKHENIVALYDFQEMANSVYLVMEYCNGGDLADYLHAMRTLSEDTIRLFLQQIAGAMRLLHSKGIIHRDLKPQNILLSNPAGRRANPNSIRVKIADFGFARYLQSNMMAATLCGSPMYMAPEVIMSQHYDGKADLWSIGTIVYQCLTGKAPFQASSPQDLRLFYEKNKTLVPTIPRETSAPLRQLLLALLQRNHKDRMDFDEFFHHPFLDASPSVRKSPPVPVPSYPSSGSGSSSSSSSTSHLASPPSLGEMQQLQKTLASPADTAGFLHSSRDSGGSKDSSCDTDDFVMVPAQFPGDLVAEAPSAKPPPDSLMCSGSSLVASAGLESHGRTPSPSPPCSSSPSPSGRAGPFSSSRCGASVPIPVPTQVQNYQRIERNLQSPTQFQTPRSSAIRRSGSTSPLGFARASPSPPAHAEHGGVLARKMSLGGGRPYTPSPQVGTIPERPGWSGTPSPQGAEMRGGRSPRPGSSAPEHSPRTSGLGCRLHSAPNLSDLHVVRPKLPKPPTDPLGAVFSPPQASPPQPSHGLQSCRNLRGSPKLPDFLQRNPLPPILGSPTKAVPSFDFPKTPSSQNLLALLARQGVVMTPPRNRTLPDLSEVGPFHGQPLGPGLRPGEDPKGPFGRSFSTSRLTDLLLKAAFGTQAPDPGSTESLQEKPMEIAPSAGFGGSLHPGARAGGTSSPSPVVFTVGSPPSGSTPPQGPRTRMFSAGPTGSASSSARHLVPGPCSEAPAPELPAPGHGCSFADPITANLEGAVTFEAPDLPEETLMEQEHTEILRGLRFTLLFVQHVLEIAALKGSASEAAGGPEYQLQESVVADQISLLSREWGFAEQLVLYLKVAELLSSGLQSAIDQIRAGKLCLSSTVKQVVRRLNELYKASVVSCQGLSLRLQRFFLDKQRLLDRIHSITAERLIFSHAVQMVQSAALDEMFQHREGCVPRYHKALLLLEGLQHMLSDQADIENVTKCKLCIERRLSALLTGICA
Put plainly: Kinase profiling ULK1. The settings on record: for remaining activity at 100 µM: read-out: residual kinase activity, ULK1.
Source text: as §1

Setting [1] is: 100 micromolar inhibitor concentration, 100 is no change.
Setting [2] is: 100 micromolar inhibitor, 100 = no change.

pIC50: −log10 of the molar value. Where two headings read alike, the source gives them in different places.

Chain of IRAK1 (P51617 whole entry, species assumed): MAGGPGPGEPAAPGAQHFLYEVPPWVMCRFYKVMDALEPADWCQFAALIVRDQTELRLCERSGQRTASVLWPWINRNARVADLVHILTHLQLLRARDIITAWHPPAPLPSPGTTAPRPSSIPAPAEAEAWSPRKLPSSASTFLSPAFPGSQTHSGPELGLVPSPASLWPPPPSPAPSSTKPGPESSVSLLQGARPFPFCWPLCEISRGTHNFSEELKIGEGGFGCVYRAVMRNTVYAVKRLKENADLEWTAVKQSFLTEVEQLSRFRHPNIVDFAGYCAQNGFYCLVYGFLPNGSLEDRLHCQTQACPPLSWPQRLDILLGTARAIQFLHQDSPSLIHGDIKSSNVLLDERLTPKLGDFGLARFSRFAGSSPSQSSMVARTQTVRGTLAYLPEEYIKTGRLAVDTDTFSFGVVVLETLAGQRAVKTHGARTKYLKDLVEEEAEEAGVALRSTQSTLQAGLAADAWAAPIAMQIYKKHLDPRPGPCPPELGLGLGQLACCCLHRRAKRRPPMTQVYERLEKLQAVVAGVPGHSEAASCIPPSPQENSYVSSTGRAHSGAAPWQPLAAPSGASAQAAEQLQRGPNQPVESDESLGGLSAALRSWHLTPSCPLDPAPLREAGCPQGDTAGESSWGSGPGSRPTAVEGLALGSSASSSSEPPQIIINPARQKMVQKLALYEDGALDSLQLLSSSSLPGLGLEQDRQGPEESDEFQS

Consider `CC(=O)Nc1nc2cc(O)ccc2s1` [Compound 01-66, N-(5-hydroxybenzo[d]thiazol-2-yl)acetamide], for which, at IRAK1, the remaining activity at 100 µM came to 29%. In addition, the pIC50 at DYRK1A was 6.10.
In the case of `CC(=O)Nc1nc2ccc(O)cc2s1` [Compound 01-71], the remaining activity at 100 µM at IRAK1 (setting [1]) worked out at 26%. In addition, the pIC50 at DYRK1A is 4.55.
As for `CC(=O)Nc1nc2ccc(C(F)(F)F)cc2s1` [Compound 01-90], the values for the remaining activity at 100 µM on IRAK1 (setting [1]) and on ULK1 (setting [1]) were 43% and 87%, respectively. Also, the pIC50 on DYRK1A is 5.96.
On to `CC(=O)Nc1nc2ccc(C#N)cc2s1` [Compound 01-94], for which the remaining activity at 100 µM stood at 11% at IRAK1 (setting [1]) and 92% at ULK1 (setting [1]). The pIC50 on DYRK1A was 5.89.
Consider `CC(=O)Nc1cccc(NC(=O)c2nc3ccc(O)cc3s2)c1` [Compound 03-07, N-(3-acetamidophenyl)-6-hydroxybenzo[d]thiazole-2-carboxamide], for which the remaining activity at 100 µM at IRAK1 (setting [2]) came to 49%; on ULK1 (setting [2]) it was 70%.
Regarding `O=C(Nc1nc2cc(O)ccc2s1)c1ccncc1` [Compound 03-11], at IRAK1 (setting [1]), the “residual kinase activity, IRAK1” value is recorded as 68. At ULK1 (setting [1]), the “residual kinase activity, ULK1” value is 90.
Consider `O=C(Nc1nc2ccc(O)cc2s1)c1ccccn1` [Compound 03-12], for which the “residual kinase activity, IRAK1” value on IRAK1 (setting [1]) turned out to be 37. The “residual kinase activity, ULK1” value at ULK1 (setting [1]) amounted to 96.
The like results for `O=C(Nc1nc2cc(O)ccc2s1)c1ccccn1` [Compound 03-13] were, in that order, 38 and 78.
Turning to `COc1ccc2sc(NC(C)=O)nc2c1` [Compound 03-21], the remaining activity at 100 µM was 45% at IRAK1 (setting [1]) and 103% on ULK1 (setting [1]). Also, the pIC50 at DYRK1A is 6.40.
Regarding `CC(=O)Nc1nc2ccccc2s1` [Compound 03-32], the “residual kinase activity, IRAK1” value on IRAK1 (setting [1]) is given as 65. Also, the “residual kinase activity, ULK1” value at ULK1 (setting [1]) is on record as 102.
For the molecule `O=C(Nc1nc2cc(O)ccc2s1)c1cccnc1` [Compound 03-33], the “residual kinase activity, IRAK1” value at IRAK1 (setting [1]) worked out at 57. Besides, the “residual kinase activity, ULK1” value on ULK1 (setting [1]) was determined as 88.
Take `O=C(Nc1nc2ccc(O)cc2s1)c1ccccc1` [Compound 03-60]: the “residual kinase activity, IRAK1” value at IRAK1 (setting [1]) was 26. Besides, the “residual kinase activity, ULK1” value on ULK1 (setting [1]) was found to be 47.
In the case of `CC(=O)Nc1nc2cc(C(F)(F)F)ccc2s1` [Compound 03-73], the remaining activity at 100 µM at IRAK1 (setting [1]) was determined as 85%; on ULK1 (setting [1]) it was 91%. For the same molecule, at DYRK1A, the pIC50 was 4.58.
With `CC(=O)Nc1nc2cc(C)ccc2s1` [Compound 03-76], at IRAK1 (setting [1]), the “residual kinase activity, IRAK1” value is 59. Also, the “residual kinase activity, ULK1” value on ULK1 (setting [1]) is 82.
For `CC(=O)Nc1nc2cc(F)ccc2s1` [Compound 03-77], the remaining activity at 100 µM at IRAK1 (setting [1]) was 46%; on ULK1 (setting [1]), 83%. For the same molecule, the pIC50 at DYRK1A was 5.41.
Turning to `CC(=O)Nc1nc2ccc(F)cc2s1` [Compound 03-94], at DYRK1A, the pIC50 is 4.63.
`O=C(Nc1nc2ccc(O)cc2s1)c1ccncc1` [Compound 08-42]: on IRAK1 (setting [1]), the “residual kinase activity, IRAK1” value stood at 38. The “residual kinase activity, ULK1” value on ULK1 (setting [1]) worked out at 69.
In the case of `O=C(Nc1nc2ccc(O)cc2s1)c1cccnc1` [Compound 08-44], on IRAK1 (setting [1]), the “residual kinase activity, IRAK1” value worked out at 37. Besides, the “residual kinase activity, ULK1” value on ULK1 (setting [1]) is 78.
As for `CC(=O)Nc1nc2ccc([N+](=O)[O-])cc2s1` [Compound 13-10], at DYRK1A, the pIC50 was 6.15.
